Results on three molecules are retold here after ChEMBL document CHEMBL4130627, “Prodrugs of the Phosphoribosylated Forms of Hydroxypyrazinecarboxamide Pseudobase T-705 and Its De-Fluoro Analogue T-1105 as Potent Influenza Virus Inhibitors” (J Med Chem, 2018).

The nature of data set [1]: Cytotoxicity against HGPRT deficient 6-thioguanine-resistant MDCK cells assessed as change in cell morphology after 3 days by microscopic analysis. The following applies: dog. In kind it is cell-based, Canis lupus familiaris.
For data set [2], the target named is T1, Liver carboxylesterase (Sus scrofa, UniProt Q29550).
T1 sequence (Q29550 whole entry): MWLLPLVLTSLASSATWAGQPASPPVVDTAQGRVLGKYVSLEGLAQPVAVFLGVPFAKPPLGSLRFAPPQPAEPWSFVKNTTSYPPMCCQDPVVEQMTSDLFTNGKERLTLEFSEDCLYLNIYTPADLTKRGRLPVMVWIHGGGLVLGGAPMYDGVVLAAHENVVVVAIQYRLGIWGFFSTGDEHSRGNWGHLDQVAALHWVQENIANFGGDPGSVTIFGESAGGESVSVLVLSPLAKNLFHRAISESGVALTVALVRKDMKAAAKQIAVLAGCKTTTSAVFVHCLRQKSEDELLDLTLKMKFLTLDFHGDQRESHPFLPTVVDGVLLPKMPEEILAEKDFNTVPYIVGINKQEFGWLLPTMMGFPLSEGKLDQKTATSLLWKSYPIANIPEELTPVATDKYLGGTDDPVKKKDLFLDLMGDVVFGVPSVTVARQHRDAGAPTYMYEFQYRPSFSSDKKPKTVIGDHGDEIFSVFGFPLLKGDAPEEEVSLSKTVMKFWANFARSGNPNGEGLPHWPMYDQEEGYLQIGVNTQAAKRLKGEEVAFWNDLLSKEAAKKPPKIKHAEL
The experiment in a line: Drug metabolism assessed as pig liver esterase mediated 4-((((((2R,3S,4R,5R)-5-(3-carbamoyl-2-oxopyrazin-1(2H)-yl)-3,4-dihydroxytetrahydrofuran-2-yl)methoxy)(hydroxy)phosphoryloxy)(hydroxy)phosphoryloxy)methyl)phenyl decanoate formation at 450 uM after 150 mins by RP-HPLC-UV analysis. It is filed as ADME. The following applies: isolated protein, 2.5 h.

Data set [3] in a line: Drug metabolism in MDCK cells assessed as 4-((((((2R,3S,4R,5R)-5-(3-carbamoyl-2-oxopyrazin-1(2H)-yl)-3,4-dihydroxytetrahydrofuran-2-yl)methoxy)(hydroxy)phosphoryloxy)(hydroxy)phosphoryloxy)methyl)phenyl decanoate formation at 450 uM up to 4 hrs by RP-HPLC-UV analysis. The following applies: dog. In kind it is ADME, cell-based, Canis lupus familiaris.
Data set [4] deals with Influenza B virus. The experiment in a line: microbe, parasite or virus in culture. The following applies: Ned/537/05, MDCK, 72 h.
Description: Antiviral activity against Influenza virus B/Ned/537/05 infected in MDCK cells assessed as reduction in viral replication at 3 days post infection by formazan-based MTS assay
Data set [5] has as its system Influenza A virus. In kind it is functional, organism-based. The following applies: Influenza A virus (A/X-31(H3N2)); MDCK; 25 uM.
For data set [6], the system named is Influenza A virus. It is filed as functional, organism-based. The settings on record: Influenza A virus (A/X-31(H3N2)); MDCK; 6 uM.
For another data set, the system named is A549. The experiment in a line: Cytotoxicity against human A549 cells assessed as reduction in cell viability at 100 uM. It is filed as cell-based. The settings on record: a549, 100 µM.
Data set [7] has as its system Influenza A virus. It is filed as functional, organism-based. The settings on record: Influenza A virus (A/X-31(H3N2)); MDCK; 25 uM. The source holds these as a separate data set.
Data set [8] relates to unidentified influenza virus. The data set is described as follows: Potency index, ratio of T-1105 EC99 to compound EC99 for Influenza virus infected in human A549 cells. It is filed as functional.
The nature of data set [9]: Inhibition of Influenza virus A/X-31 RNA dependent RNA polymerase using ApG primer [adenyl (3'-5') guanosine] and [8-3H]GTP after 1 hr by filter-based assay. Also on record: species or system Influenza A virus (A/X-31(H3N2)).
For data set [10], the system named is unidentified influenza virus. The data set is described as follows: Antiviral activity against Influenza virus infected in human A549 cells. In kind it is functional.
The nature of data set [11]: Cytotoxicity against MDCK cells assessed as reduction in cell viability after 3 days by formazan-based MTS assay. Also on record: species or system Canis lupus familiaris. The settings on record: dog. On the technique in general: Formazan colour is commonly taken as a measure of viable cells.
Data set [12] is described as follows: Prodrug activation in phosphate buffer at pH 7.3 assessed as half life for T-1105-RDP formation at 450 uM after 24 to 120 hrs by RP-HPLC-UV analysis. In kind it is physicochemical. The settings on record: pH 7.3, 450 µM.
Data set [13] concerns Influenza A virus. The data set is described as follows: microbe, parasite or virus in culture. The settings on record: MDCK, 72 h.
Description: Antiviral activity against Influenza virus A/X-31 infected in MDCK cells assessed as reduction in viral replication at 3 days post infection by formazan-based MTS assay
Data set [14] deals with Influenza B virus. The experiment in a line: microbe, parasite or virus in culture. The following applies: Ned/537/05, MDCK, 72 h. The source holds these as a separate data set.
Description: Antiviral activity against Influenza virus B/Ned/537/05 infected in MDCK cells assessed as reduction in viral replication at 3 days post infection by microscopic analysis
In data set [15] the test system is Influenza A virus. It is filed as functional, organism-based. The following applies: Influenza A virus (A/X-31(H3N2)); MDCK; 12 to 25 uM.
Data set [16] is described as follows: Drug metabolism in MDCK cells assessed as T-1105-RDP formation at 450 uM up to 4 hrs by RP-HPLC-UV analysis. It is filed as ADME, cell-based, Canis lupus familiaris. The settings on record: dog.
Data set [17] relates to Influenza A virus. It is filed as functional, organism-based. The following applies: Influenza A virus (A/X-31(H3N2)); MDCK; 25 uM. The source holds these as a separate data set.
The nature of data set [18]: Cytotoxicity against MDCK cells assessed as change in cell morphology after 3 days by microscopic analysis. The following applies: dog. In kind it is cell-based, Canis lupus familiaris.
Data set [19] concerns MDCK. The data set is described as follows: Prodrug activation in MDCK cells assessed as T-1105-RMP formation at 450 uM up to 4 hrs by RP-HPLC-UV analysis. In kind it is cell-based, Canis lupus familiaris. The settings on record: dog.
The test system of data set [20] is MDCK. The data set is described as follows: Prodrug activation in MDCK cells assessed as T-1105-RDP formation at 500 uM after 2 hrs by RP-HPLC-UV analysis. It is filed as cell-based, Canis lupus familiaris. The settings on record: dog.
Data set [21] deals with MDCK. The data set is described as follows: Prodrug activation in MDCK cells assessed as T-1105-RTP formation at 450 uM up to 4 hrs by RP-HPLC-UV analysis. In kind it is cell-based, Canis lupus familiaris. The settings on record: dog.
The subject of data set [22] is Influenza A virus. The data set is described as follows: microbe, parasite or virus in culture. The following applies: MDCK, 72 h. This is another data set of the same source.
Description: Antiviral activity against Influenza virus A/X-31 infected in MDCK cells assessed as reduction in viral replication at 3 days post infection by microscopic analysis
For data set [23], the target named is T1, Liver carboxylesterase. The data set is described as follows: Prodrug activation assessed as pig liver esterase mediated metabolite formation at 450 uM up to 150 mins by RP-HPLC-UV analysis. In kind it is ADME. The settings on record: isolated protein, 2.5 h.
In data set [24] the test system is MDCK. In kind it is cell-based, Canis lupus familiaris. The following applies: dog, 2 h, 500 µM.
Data set [25] can be described thus: Inhibition of Influenza virus B/Ned/537/05 RNA dependent RNA polymerase using ApG primer [adenyl (3'-5') guanosine] and [8-3H]GTP after 1 hr by filter-based assay.
For data set [26], the system named is Influenza A virus. In kind it is functional, organism-based. The settings on record: Influenza A virus (A/X-31(H3N2)); MDCK; 12 to 25 uM. This is another data set of the same source.
Data set [27] has as its system MDCK. The experiment in a line: Prodrug activation in MDCK cells by RP-HPLC-UV analysis. In kind it is cell-based, Canis lupus familiaris. The following applies: dog.
Data set [28] has as its system MDCK. The experiment in a line: Prodrug activation in HGPRT deficient 6-thioguanine-resistant MDCK cells by RP-HPLC-UV analysis. It is filed as cell-based, Canis lupus familiaris. The following applies: dog.
Data set [29] concerns MDCK. The data set is described as follows: Prodrug activation in MDCK cells assessed as T-1105-RMP formation at 465 uM after 1 to 840 mins by RP-HPLC-UV analysis. It is filed as cell-based, Canis lupus familiaris. The following applies: dog.
Data set [30] addresses Membrane-associated guanylate kinase, WW and PDZ domain-containing protein 1 (Homo sapiens) (UniProt Q96QZ7). The experiment in a line: Inhibition of human recombinant guanylate kinase 1 mediated […] conversion at 200 uM preincubated for 10 mins followed by enzyme addition measured up to 60 mins by UV absorbance method relative to control.
For data set [31] the target is unchanged. The experiment in a line: Inhibition of human recombinant guanylate kinase 1 mediated […] conversion at 100 uM preincubated for 10 mins followed by enzyme addition measured up to 60 mins by UV absorbance method relative to control.
The subject of data set [32] is MDCK. The data set is described as follows: Cytotoxicity against MDCK cells assessed as reduction in cell viability at 37 uM after 3 days by formazan-based MTS assay. Also on record: species or system Canis lupus familiaris. The settings on record: dog, 72 h.
Data set [33] can be described thus: Drug metabolism in MDCK cells assessed as T-1105-RTP formation at 465 uM in presence of GTP by RP-HPLC-UV analysis. The following applies: dog. In kind it is ADME, cell-based, Canis lupus familiaris.
A short description of data set [34]: Drug metabolism in MDCK cells assessed as T-1105-RTP formation at 465 uM after 2 hrs in presence of 5mM ATP by RP-HPLC-UV analysis. It is filed as ADME, cell-based, Canis lupus familiaris. The following applies: dog.
In data set [35] the target is Membrane-associated guanylate kinase, WW and PDZ domain-containing protein 1 (Homo sapiens) (UniProt Q96QZ7). The experiment in a line: Inhibition of human recombinant guanylate kinase 1 mediated […] conversion at 400 uM preincubated for 10 mins followed by enzyme addition measured up to 60 mins by UV absorbance method relative to control.
Sequence of Membrane-associated guanylate kinase, WW and PDZ domain-containing protein 1 (Homo sapiens) (Q96QZ7 whole entry, the tested form may be a part): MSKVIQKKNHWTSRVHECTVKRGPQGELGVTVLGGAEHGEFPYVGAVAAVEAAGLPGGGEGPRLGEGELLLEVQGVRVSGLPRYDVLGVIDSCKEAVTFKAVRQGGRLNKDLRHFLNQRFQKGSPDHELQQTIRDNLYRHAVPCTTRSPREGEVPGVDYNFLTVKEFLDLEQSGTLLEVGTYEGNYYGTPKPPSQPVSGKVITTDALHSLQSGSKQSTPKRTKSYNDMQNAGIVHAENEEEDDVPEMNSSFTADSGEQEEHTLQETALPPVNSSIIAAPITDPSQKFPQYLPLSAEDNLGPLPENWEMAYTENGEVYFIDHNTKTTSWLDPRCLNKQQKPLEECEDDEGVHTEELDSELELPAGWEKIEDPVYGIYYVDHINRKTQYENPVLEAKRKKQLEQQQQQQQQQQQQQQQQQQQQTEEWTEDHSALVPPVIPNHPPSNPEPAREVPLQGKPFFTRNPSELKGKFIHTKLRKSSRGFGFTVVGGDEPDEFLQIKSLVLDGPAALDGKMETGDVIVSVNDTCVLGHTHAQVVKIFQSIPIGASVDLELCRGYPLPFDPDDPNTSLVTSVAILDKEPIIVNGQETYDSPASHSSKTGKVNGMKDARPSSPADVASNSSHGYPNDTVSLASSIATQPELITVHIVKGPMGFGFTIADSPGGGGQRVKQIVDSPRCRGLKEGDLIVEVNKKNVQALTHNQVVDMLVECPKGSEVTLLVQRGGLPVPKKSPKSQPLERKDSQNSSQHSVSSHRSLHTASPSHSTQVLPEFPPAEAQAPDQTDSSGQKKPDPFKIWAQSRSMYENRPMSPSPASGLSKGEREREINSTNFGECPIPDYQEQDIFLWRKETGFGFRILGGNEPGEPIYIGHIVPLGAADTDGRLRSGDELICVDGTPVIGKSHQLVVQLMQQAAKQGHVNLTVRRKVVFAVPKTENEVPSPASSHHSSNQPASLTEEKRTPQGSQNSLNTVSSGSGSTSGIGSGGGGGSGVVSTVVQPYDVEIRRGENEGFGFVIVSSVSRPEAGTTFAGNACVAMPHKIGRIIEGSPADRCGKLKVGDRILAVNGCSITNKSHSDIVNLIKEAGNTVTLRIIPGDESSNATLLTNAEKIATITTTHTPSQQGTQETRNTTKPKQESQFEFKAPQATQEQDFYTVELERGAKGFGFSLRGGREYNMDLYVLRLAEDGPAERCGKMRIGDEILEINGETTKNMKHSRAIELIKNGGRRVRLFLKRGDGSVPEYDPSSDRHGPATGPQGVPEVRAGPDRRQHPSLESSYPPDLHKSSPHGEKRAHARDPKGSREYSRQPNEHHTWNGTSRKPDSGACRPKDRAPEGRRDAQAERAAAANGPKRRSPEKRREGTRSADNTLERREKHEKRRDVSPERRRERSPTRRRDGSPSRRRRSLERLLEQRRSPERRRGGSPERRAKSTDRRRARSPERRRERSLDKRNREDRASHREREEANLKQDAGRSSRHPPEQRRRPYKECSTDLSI
Data set [36] has as its system MDCK. The data set is described as follows: Prodrug activation in HGPRT deficient MDCK cells assessed as T-1105-RMP formation at 465 uM after 1 to 840 mins by RP-HPLC-UV analysis. In kind it is cell-based, Canis lupus familiaris. The following applies: dog.

Active and inactive are the calls of the source. No cut-off for these calls is given here.

Turning to `CCCCCCCCCC(=O)Oc1ccc(COP(=O)(OCc2ccc(OC(=O)CCCCCCCCC)cc2)OP(=O)(O)OC[C@H]2O[C@@H](n3ccnc(C(N)=O)c3=O)[C@H](O)[C@@H]2O)cc1.CCN(CC)CC`, the results for the MCC at 72 h in data set [1] and in data set [18] were 22 µM and 37 µM, respectively. For the same molecule, the Drug metabolism result at Liver carboxylesterase [2] is listed as “Metabolite_Detected”; in [3], “Metabolite_Detected”; in data set [16], “Metabolite_Detected”; in the data set with MDCK [19] it was “Metabolite_Detected”; in the data set on MDCK [20] it was “Metabolite_Detected”; in the data set with MDCK [21], “Metabolite_Notdetected”. Also, the Drug metabolism result at Liver carboxylesterase [23] and with MDCK [24] was “Metabolite_Detected” each time. Also, the EC50 (usually the concentration that produces a half-maximal response) was 0.56 µM in the data set on Influenza B virus [4], 1 µM in the data set with Influenza A virus [13], 0.81 µM in the data set with Influenza B virus [14] and 1.3 µM in the data set with Influenza A virus [22]. Besides, the inhibition result in the data set on Influenza A virus [5] and in the data set on Influenza A virus [17] was “inactive” each time. In addition, the inhibition result in the data set on Influenza A virus [6], in the data set on Influenza A virus [7], in the data set with Influenza A virus [15] and with Influenza A virus [26] was “Active” throughout. In addition, in the data set on A549, the Activity result is “Non-Toxic”. Besides, the Ratio in data set [8] was 2. Also, the 50% inhibitory concentration (IC50) in data set [9] and in data set [25] was 49 to 126 µM each time. Also, the concentration for an effect of 99% (EC99) (in general, the point of the concentration-response curve where the effect stands at 99%) in [10] amounted to 72 µM. Besides, in [11], the CC50 (usually the concentration at which the toxic effect on the cells reaches its halfway point) at 72 h was greater than 100 µM. Also, the t1/2 in [12] is 30 h.
As for `NC(=O)c1nc(Br)cnc1O`, the MCC at 72 h in [1] and in data set [18] was greater than 250 µM in each case. In addition, the EC50 in the data set on Influenza B virus [4], in the data set on Influenza A virus [13], in the data set with Influenza B virus [14] and in the data set on Influenza A virus [22] was greater than 250 µM each time. For the same molecule, the Drug metabolism entry in the data set on MDCK [27] and with MDCK [28] was “Metabolite_Notdetected” throughout. Besides, the 50% cytotoxic concentration (CC50) at 72 h in data set [11] is greater than 250 µM.
Take `NC(=O)c1nccn([C@@H]2O[C@H](COP(=O)(O)OP(=O)(O)O)[C@@H](O)[C@H]2O)c1=O`: the Drug metabolism entry (in the data set on MDCK [29]; in data set [33]; in data set [34]; in the data set on MDCK [36]) was “Metabolite_Detected” each time. The results for the inhibition in data set [30], in [31] and in [35] were 62%, 37% and 82%, respectively. Moreover, the Activity entry in the data set on MDCK [32] is reported as “Non-Toxic”.
